Reference: US8399399B2, “3- and 4-methyl dodecenal and their use in fragrance and flavour compositions” (Givaudan SA, priority 2005, dated 2013)

Experiment: Determination of GC-odour threshold concentration (gas chromatograph with sniff port, panel of trained evaluators)
Details: for odour threshold concentration, geometric mean: GC sniff port, absolute amount of compound delivered at the sniff port, group of 5 panelists, identical conditions; for odour threshold of the (Z)-isomer compared to its corresponding (E)-isomer (times higher): pure (Z)-isomer versus pure (E)-isomer
Procedure: The odour threshold concentration is defined as the lowest concentration of the vapour of an odourant material in the air which can be detected by smell and can be measured by standard methods known in the art.
According to standard procedures known to the person skilled in the art, threshold concentrations for volatile perfumery compounds are determined on a gas chromatograph equipped with a sniff port by a panel of trained evaluators. The lowest concentration smelled by each panellist is recorded as the individual threshold concentration expressed in ng (absolute amount of compound delivered at the sniff port).
Under identical conditions the odour threshold concentration for (E)-2-methyl-4-dodecenal (prior art), (E)-3-methyl-4-dodecenal and (E)-4-methyl-4-dodecenal was measured and compared by a group of 5 panelists.

CCCCCCC/C=C/CC(C)C=O (centres unmarked) [(E)-2-methyl-4-dodecenal, reference compound]
odour threshold concentration, geometric mean: 3.2 ng

CCCCCCC/C=C\C(C)CC=O (centres unmarked) [(Z)-3-methyl-4-dodecenal]
odour threshold of the (Z)-isomer compared to its corresponding (E)-isomer (times higher): 5 times

CCCCCCC/C=C(/C)CCC=O [(Z)-4-methyl-4-dodecenal, (Z)-4-Methyl-4-dodecenal]
odour threshold of the (Z)-isomer compared to its corresponding (E)-isomer (times higher): 20 times

CCCCCCC/C=C/C(C)CC=O (centres unmarked) [(E)-3-methyl-4-dodecenal]
odour threshold concentration, geometric mean: 1.0 ng

CCCCCCC/C=C(\C)CCC=O [(E)-4-methyl-4-dodecenal, (E)-4-Methyl-4-dodecenal]
odour threshold concentration, geometric mean: 0.05 ng
